Here are results for one molecule from ChEMBL document CHEMBL1144839, “Cytotoxic bastadin 24 from the Australian sponge Ianthella quadrangulata” (J Nat Prod, 2008).

This test relates to HUVEC. The test can be described thus: Antiangiogenic activity in HUVEC cells assessed as inhibition of hEGF-induced tubular formation at 1 ug/mL after 24 hrs relative to control. It counts as functional, Homo sapiens. The arrangement: scale not given: the % may be the effect or the level left.

With `O=C1NCCc2cc(Br)c(O)c(c2)Oc2c(Br)cc(cc2Br)[C@H](O)CNC(=O)/C(=N/O)Cc2cc(Br)c(O)c(c2)Oc2ccc(cc2Br)C/C1=N\O` [BASTADIN 12], the Activity was found to be 27.6%.
